{"source": "patent US20250302039A1", "about": "“USE OF N-SUBSTITUTED PYRROLIDONES TO PROMOTE THE PENETRATION OF AGROCHEMICAL ACTIVE AGENTS” (priority 2016, published 2025)", "assay_type_in_all_cases": "physicochemical", "key": {"[1]": {"assay": "Miscibility of N-(n-butyl)-2-pyrrolidone with solvents", "details": "with water, propylene glycol, polyethylene glycol, dimethylamide, Solvesso® 200 ND, alkylated vegetable oil or mineral oils", "text": "In addition, the N-substituted pyrrolidones of the formula (I) can also be combined advantageously with various water-immiscible solvents and may serve as cosolvents in solvent-containing formulations, for example in emulsion concentrates (EC), oil dispersions (OD), suspoemulsions (SE) and microemulsions (ME)."}, "[2]": {"assay": "Solutions of active ingredients in N-(n-butyl)-2-pyrrolidone", "details": "solvent N-(n-butyl)-2-pyrrolidone; based on the total weight of the solution"}, "[3]": {"assay": "Microscopy studies: crystallization behavior after 18 hours of drying", "details": "1 g/L; 1 μL on silanized glass slide; 18 hours of drying at 25° C., 53% relative air humidity; 400× magnification", "text": "The following solutions 1) to 6) were produced:\nSolution of 1 g of rynaxypyr in one liter of a mixture of acetone and distilled water at a weight ratio of acetone:distilled water of 30:70.\nSolution of 1 g of rynaxypyr in one liter of a mixture of N-(n-butyl)-2-pyrrolidone and distilled water at a weight ratio of N-(n-butyl)-2-pyrrolidone:distilled water of 30:70.\nSolution of 1 g of emamectin benzoate in one liter of a mixture of acetone and distilled water at a weight ratio of acetone:distilled water of 30:70.\nSolution of 1 g of emamectin benzoate in one liter of a mixture of N-(n-butyl)-2-pyrrolidone and distilled water at a weight ratio of N-(n-butyl)-2-pyrrolidone:distilled water of 30:70.\nSolution of 1 g of abamectin in one liter of a mixture of acetone and distilled water at a weight ratio of acetone:distilled water of 30:70.\nSolution of 1 g of abamectin in one liter of a mixture of N-(n-butyl)-2-pyrrolidone and distilled water at a weight ratio of N-(n-butyl)-2-pyrrolidone:distilled water of 30:70.\nThe procedure as described hereinafter was followed with solutions 1) to 6) (see steps A) to C)): • A) 1 μL of the above-described solutions 1) to 6) in each case was applied to silanized glass microscope slides. • B) The solutions were left to stand on the microscope slides at a temperature of 25° C. and 53% relative air humidity over 18 hours, in the course of which drying took place. • C) Thereafter, the microscope slides were assessed and photos were taken at the original edge of the droplets with 400-fold magnification.\nThe photos for the active agrochemical ingredient abamectin are shown in FIG. 2A and FIG. 2B, those for the active agrochemical ingredient rynaxapyr in FIG. 3A and FIG. 3B, and those for the active agrochemical ingredient emamectin benzoate in FIG. 4A and FIG. 4B."}}, "data": [{"compound": "CCCCN1CCCC1=O", "note": "[N-(n-Butyl)-2-pyrrolidone, N-(n-butyl)-2-pyrrolidone]", "values": [{"measurement": "miscibility with solvents", "setting": "[1]", "value": "miscible in all ratios"}]}, {"compound": "OC(Cc1ccccc1Cl)(Cn1nc[nH]c1=S)C1(Cl)CC1", "note": "(centres unmarked) [prothioconazole]", "values": [{"measurement": "amount of active ingredient in solutions prepared with N-(n-butyl)-2-pyrrolidone", "setting": "[2]", "value": "greater than 35 % by weight"}]}, {"compound": "CNC(=O)c1cc(Cl)cc(C)c1NC(=O)c1cc(Br)nn1-c1ncccc1Cl", "note": "[rynaxypyr]", "values": [{"measurement": "crystallization behavior in N-(n-butyl)-2-pyrrolidone/water (30:70) solution", "setting": "[3]", "value": "remaining dissolved"}, {"measurement": "crystallization behavior in acetone/water (30:70) solution", "setting": "[3]", "value": "crystallized out"}]}, {"compound": "abamectin", "values": [{"measurement": "crystallization behavior in N-(n-butyl)-2-pyrrolidone/water (30:70) solution", "setting": "[3]", "value": "remaining dissolved"}, {"measurement": "crystallization behavior in acetone/water (30:70) solution", "setting": "[3]", "value": "crystallized out"}]}, {"compound": "emamectin benzoate", "values": [{"measurement": "crystallization behavior in N-(n-butyl)-2-pyrrolidone/water (30:70) solution", "setting": "[3]", "value": "remaining dissolved"}, {"measurement": "crystallization behavior in acetone/water (30:70) solution", "setting": "[3]", "value": "crystallized out"}]}]}
